Laboratory results taken from patent US20220002226A1, “Amorphous Form of Chelating Agents and Process for Preparing them” (Hovione Scientia Limited, priority 2018, published 2022).

Columns and labels:
[1] = cited from earlier work
[2] = Solubility test according to European Pharmacopoeia (Ph. Eur. 5.11): increasing amounts of water added to 100 mg of powder; format: physicochemical; details: 22° C.; for 100 mg dissolved in stated volume of water (YES/No): 100 mg powder
Method: Characters section in monographs. This was used in the tests below.
Solubility was assessed using the European Pharmacopeia method referred to above where increasing amounts of water are added to 100 mg of powder until its complete dissolution (or otherwise).
Characters section in monographs.

[3] = 0.1 ml water, Ph. Eur. class Very soluble
[4] = 1.0 ml water, Ph. Eur. class Freely soluble
[5] = 3.0 ml water, Ph. Eur. class Soluble
[6] = 10.0 ml water, Ph. Eur. class Sparingly soluble
[7] = 20.0 ml water, Ph. Eur. class Slightly soluble
[8] = 30.0 ml water, Ph. Eur. class Very slightly soluble
[9] = 40.0 ml water, Ph. Eur. class Insoluble
[10] = 50.0 ml water, Ph. Eur. class printed Insoluble (Tables 2, 6), Very slightly soluble (Table 4)
[11] = 60.0 ml water, Ph. Eur. class Insoluble
[12] = 70.0 ml water, Ph. Eur. class Insoluble
[13] = 80.0 ml water, Ph. Eur. class Insoluble

Row | SMILES | solubility in water (prior-art statement) [1] | 100 mg dissolved in stated volume of water (YES/No) [2, 3] | 100 mg dissolved in stated volume of water (YES/No) [2, 4] | 100 mg dissolved in stated volume of water (YES/No) [2, 5] | 100 mg dissolved in stated volume of water (YES/No) [2, 6] | 100 mg dissolved in stated volume of water (YES/No) [2, 7] | 100 mg dissolved in stated volume of water (YES/No) [2, 8] | 100 mg dissolved in stated volume of water (YES/No) [2, 9] | 100 mg dissolved in stated volume of water (YES/No) [2, 10] | 100 mg dissolved in stated volume of water (YES/No) [2, 11] | 100 mg dissolved in stated volume of water (YES/No) [2, 12] | 100 mg dissolved in stated volume of water (YES/No) [2, 13] | solubility compared with the corresponding crystalline form ([2]; Ph. Eur. solubility test, water)
1 | O=C(O)CN(CCN(CC(=O)O)CC(=O)O)CCN(CC(=O)O)CC(=O)O [DTPA, diethylenetriaminepentaacetic acid] | soluble in water only at higher pH (around 8) |  |  |  |  |  |  |  |  |  |  |  | 
2 | O=C(O)CN(CCN(CC(=O)O)CC(=O)O)CCN(CC(=O)O)CC(=O)O [DTPA Crystalline Industrial grade, diethylenetriaminepentaacetic acid] |  | No | No | No | No | No | No | No | No | No | No | YES | 
3 | O=C(O)CN(CCN(CC(=O)O)CC(=O)O)CCN(CC(=O)O)CC(=O)O [DTPA Amorphous pharma grade, diethylenetriaminepentaacetic acid] |  | No | No | No | No | No | YES |  |  |  |  |  | higher solubility
4 | O=C(O)CN(CCN(CC(=O)O)CC(=O)O)CCN(CC(=O)O)CC(=O)O [DTPA Crystalline pharma grade, diethylenetriaminepentaacetic acid] |  | No | No | No | No | No | No | No | No | No | No | YES | 
